The text below walks through data of patent US20220119367A1, “HETEROCYCLIC COMPOUNDS AS ADENOSINE ANTAGONISTS” (Nuvation Bio Inc., priority 2019, published 2022).

Assay [1] deals with T1, adenosine A2a (human) membrane (Homo sapiens, UniProt P29274).
T1 construct: purchased PerkinElmer RBHA2AM400UA
Briefly: A2A adenosine receptor radioligand binding assay ([3H] CGS-21680). Particulars: radioligand [3H] CGS-21680 6 nM. The procedure: A second A2A adenosine receptor radioligand binding assay protocol was used. The protocol used adenosine A2a (human) membrane (PerkinElmer RBHA2AM400UA) at a concentration of 5 μg/well/100 μl and the radioligand [3H] CGS-21680 (Cat No. PerkinElmer-NET1021250UC) at a final concentration of 6 nM. Testing compounds were diluted with DMSO to make 8-point 4-fold serial dilution, starting at 0.2 mM. CGS-15943 was the reference compound. 1 μl of compounds/high control/low control was transferred to the assay plate according to a plate map, followed by 100 μl of membrane stocks and 100 μl of radioligand, in assay buffer (50 mM Tris-HCl, 10 mM MgCl2, 1 mM EDTA, pH 7.4). The plate was sealed and incubated at RT for 2 hours. Unifilter-96 GF/C filter plates (Perkin Elmer Cat #6005174) were soaked with 50 μl of 0.3% PEI per well for at least 0.5 hour at room temperature. When the binding assays were completed, the reaction mixtures were filtered through GF/C plates using Perkin Elmer Filtermate Harvester, and each plate washed 4 times with cold wash buffer (50 mM Tris-HCl, 154 mM NaCl, pH 7.4). The filter plates were dried for 1 hour at 50 degrees. After drying, the bottom of the filter plate wells was sealed, 50 μl of Perkin Elmer Microscint 20 cocktail was added, and the top of the filter plate was sealed. ^3H trapped on the filter was counted using Perkin Elmer MicroBeta2 Reader. The data were analyzed with GraphPad Prism 5 to obtain binding IC50 values. The “Inhibition [% Control]” was calculated using the equation: % Inh=(1−Background subtracted Assay value/Background subtracted HC value)*100, where HC is high control.

For assay [2], the target named is T2, adenosine A1 (human) membrane (Homo sapiens, UniProt P30542).
T2 construct: purchased PerkinElmer ES-010-M400UA
T2 sequence (P30542 1-326): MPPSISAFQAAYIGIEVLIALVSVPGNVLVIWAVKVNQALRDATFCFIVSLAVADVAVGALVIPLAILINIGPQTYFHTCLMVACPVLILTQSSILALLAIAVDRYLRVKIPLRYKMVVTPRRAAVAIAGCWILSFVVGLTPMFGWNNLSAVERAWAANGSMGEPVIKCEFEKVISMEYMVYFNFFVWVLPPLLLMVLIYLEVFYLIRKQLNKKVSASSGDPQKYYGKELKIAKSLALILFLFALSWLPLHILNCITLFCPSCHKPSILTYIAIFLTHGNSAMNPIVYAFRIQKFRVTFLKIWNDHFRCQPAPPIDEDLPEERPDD
Briefly: A1 adenosine receptor radioligand binding assay ([3H] DPCPX). Particulars: compound at 200 nM, radioligand [3H] DPCPX 1 nM. The procedure: A second A1 adenosine receptor radioligand binding assay protocol was used. The protocol used adenosine A1 (human) membrane (PerkinElmer ES-010-M400UA) at a concentration of 2.5 μg/well/100 μl and the radioligand [3H] DPCPX (Cat No. PerkinElmer-NET974250UC) at a final concentration of 1 nM. Testing compounds were tested at a final concentration of 200 nM. CGS-15943, the reference compound, was tested in an 8-point 4-fold serial dilution, starting at a top concentration of 1 μM. 1 μl of compounds/high control/low control was transferred to the assay plate according to a plate map, followed by 100 μl of membrane stocks and 100 μl of radioligand, in assay buffer (25 mM HEPES, 5 mM MgCl2, 1 mM CaCl2, 100 mM NaCl, pH 7.4). The plate was sealed and incubated at RT for 1 hour. Unifilter-96 GF/C filter plates (Perkin Elmer Cat #6005174) were soaked with 50 μl of 0.3% PEI per well for at least 0.5 hour at room temperature. When the binding assays were completed, the reaction mixtures were filtered through GF/C plates using Perkin Elmer Filtermate Harvester, and each plate washed 4 times with cold wash buffer (25 mM HEPES, 5 mM MgCl2, 1 mM CaCl2, 100 mM NaCl, pH 7.4). The filter plates were dried for 1 hour at 50 degrees. After drying, the bottom of the filter plate wells was sealed, 50 μl of Perkin Elmer Microscint 20 cocktail was added, and the top of the filter plate was sealed. ^3H trapped on the filter was counted using Perkin Elmer MicroBeta2 Reader. The data were analyzed with GraphPad Prism 5 to obtain binding IC50 values for the reference compound. The “Inhibition [% Control]” was calculated using the equation: % Inh =(1−Background subtracted Assay value/Background subtracted HC value)*100, where HC is high control.

The target in assay [3] is T3, HEK-293 cells expressing human recombinant adenosine A2A receptor (Homo sapiens, UniProt P29274).
T3 construct: expressed in transfected cells; host or cells: HEK-293
Briefly: cAMP assay (Assay 2), A2A receptor. Format: cell-based. Particulars: HEK-293 cells expressing human A2A receptor. The method, then: (§1) The functional activity of compounds was tested using Assay 2 below, to detect the presence of cAMP. Assay 1 is an alternative assay for this purpose. Activation of G-protein coupled receptors (such as A2A) results in activation of adenylyl cyclase which converts ATP into cAMP which is used as a downstream signaling molecule. Molecules which act as GPCR (or specifically A2A receptor) antagonists cause a decrease in intracellular cAMP concentration.
(§2) Assay 2 (Table B2): This assay used HEK-293 cells expressing human recombinant adenosine A2A receptor (or, alternatively, A1 receptor) that were grown prior to the test in media without antibiotic. 100 nL of test articles at 100× of final concentration were transferred to assay plate by Echo. Cells were washed twice with 5 mL of PBS and 10 μL of cells were mixed with 5 mL PBS. After aspirating the PBS and adding 1.5 mL versine, cells were incubated at 37° C. for 2-5 min. After centrifugation, 4 mL of medium was added and adjusted cell density to 5,000 cells/well with Stimulation Buffer. 10 μL of cells were aliquoted to the assay plate, centrifuged at 1000 rpm for 1 minute, and incubated for 60 minutes at room temperature. 5 μL 4× Eu-cAMP tracer solution and 5 μL 4× Ulight™-anti-cAMP solution were added to assay plate, followed by centrifugation and 60-minute incubation at room temperature. Plates were read on EnVision.

The target in assay [4] is T4, HEK-293 cells expressing human recombinant A1 receptor (Homo sapiens, UniProt P30542).
T4 construct: expressed in transfected cells; host or cells: HEK-293
T4 sequence (P30542 1-326): T2 sequence (P30542 1-326)
Put plainly: cAMP assay (Assay 2), A1 receptor. Format: cell-based. Particulars: HEK-293 cells expressing A1 receptor. The procedure: as §1, §2

T3 sequence (P29274 whole entry): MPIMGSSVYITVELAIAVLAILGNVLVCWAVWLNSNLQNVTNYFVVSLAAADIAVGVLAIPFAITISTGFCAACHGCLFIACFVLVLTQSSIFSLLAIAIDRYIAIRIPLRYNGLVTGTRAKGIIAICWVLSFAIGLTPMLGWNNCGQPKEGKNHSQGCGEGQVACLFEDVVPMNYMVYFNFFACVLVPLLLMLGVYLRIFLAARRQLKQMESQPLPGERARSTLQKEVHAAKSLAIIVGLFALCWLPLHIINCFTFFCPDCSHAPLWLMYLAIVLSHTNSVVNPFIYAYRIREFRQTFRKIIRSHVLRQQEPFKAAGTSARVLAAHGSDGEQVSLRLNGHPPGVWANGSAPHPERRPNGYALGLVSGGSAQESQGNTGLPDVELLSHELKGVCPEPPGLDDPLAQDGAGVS
T1 sequence (P29274 whole entry): as above

Usually IC50 stands for the concentration needed to halve the response being measured. Broadly, the inhibition is how much of the control response was suppressed. The low end stands for little suppression, the high end for strong suppression. In assay [1], `C[C@H](c1ccccn1)N(C)C(=O)c1nc(-c2ccc3ncccc3c2)c(-c2ccccc2)nc1N` [compound 119, (R)-3-amino-N-methyl-5-phenyl-N-(1-(pyridin-2-yl)ethyl)-6-(quinolin-6-yl)pyrazine-2-carboxamide] returned an IC50 of 105 nM. This compound gave an inhibition at 0.2 µM in assay [2] of 49%.
With `CC(C)(O)c1cccc(COc2nc(-c3cc(Cl)c4ncccc4c3)c(-c3ccc(F)cc3)nc2N)n1` [Compound No. 58, 2-(6-(((3-amino-6-(8-chloroquinolin-6-yl)-5-(4-fluorophenyl)pyrazin-2-yl)oxy)methyl)pyridin-2-yl)propan-2-ol], in assay [2], at 0.2 µM the inhibition was 85%. The IC50 in assay [3] turned out to be 18.4 nM; in assay [4] it was 92.7 nM.
Compound `C[C@@H](c1ccccn1)N(C)C(=O)c1nc(-c2ccc3ncccc3c2)c(-c2ccccc2)nc1N` [compound 120, (S)-3-amino-N-methyl-5-phenyl-N-(1-(pyridin-2-yl)ethyl)-6-(quinolin-6-yl)pyrazine-2-carboxamide] showed an IC50 in assay [1] of 65 nM. This compound had an inhibition at 0.2 µM in assay [2] of 90%.
Take `CC(C)(O)c1cccc(COc2nc(-c3ccc4ncccc4c3)c(-c3ccccc3)nc2N)n1` [compound 2, 2-(6-(((3-amino-5-phenyl-6-(quinolin-6-yl)pyrazin-2-yl)oxy)methyl)pyridin-2-yl)propan-2-ol]: the values for the half-maximal inhibitory concentration (IC50) in assay [3] and in assay [4] were 15.1 nM and 32.3 nM, respectively.
In the case of `Cc1ccn(-c2nc(N)c(OCc3cccc(C(C)(C)O)n3)nc2-c2cc(Cl)c3ncccc3c2)n1` [compound 1, 2-(6-(((3-amino-6-(8-chloroquinolin-6-yl)-5-(3-methyl-1H-pyrazol-1-yl)pyrazin-2-yl)oxy)methyl)pyridin-2-yl)propan-2-ol], in assay [3], the IC50 was found to be 164 nM.
With `CC(NC(=O)c1nc(-c2ccc3ncccc3c2)c(-c2ccccc2)nc1N)c1ccccc1` (stereo not drawn) [compound 121, 3-amino-5-phenyl-N-(1-phenylethyl)-6-(quinolin-6-yl)pyrazine-2-carboxamide], the IC50 in assay [1] amounted to 2.1 nM. In assay [2], the inhibition at 0.2 µM amounted to 68%.
Take `CC(C)(O)c1cccc(Cn2cc(-c3nc(-c4ccc5ncccc5c4)c(-c4ccccc4)nc3N)nn2)n1` [compound 102, 2-(6-((4-(3-amino-5-phenyl-6-(quinolin-6-yl)pyrazin-2-yl)-1H-1,2,3-triazol-1-yl)methyl)pyridin-2-yl)propan-2-ol]: testing at 0.2 µM in assay [2] gave an inhibition of 97%. The IC50 in assay [3] worked out at 19.6 nM; in assay [4], 8.7 nM.
